Test results published in patent US8658683B2, “Combination of alpha-2 receptor agonist (clonidin) and anti-muscarinic agent (oxybutynin) for the treatment of sialorrhoea” (Orient Pharma (Samoa) Co., Ltd, priority 2006, dated 2014).

Columns and labels:
patients = conditions: tablets; cited from earlier work
[1] = test system: patients with Parkinson's disease; conditions: ophthalmic solution given sublingually, cited from earlier work
healthy male volunteers = experiment: Saxon test of saliva production, open-label rising dose study; format: in vivo, human; conditions: for saliva production over time: drug administered alone, pre-dose to 6 h post-dose; for effect of dose on saliva production: drug alone, rising dose levels
Description: The study examined the effects of clonidine and oxybutynin on saliva production in 9 healthy male volunteers. This was an open-label, non-randomised, two-period, rising dose study.
The subjects were assessed on each dosing occasion for saliva production pre-dose and 1 h, 2.5 h, 4 h and 6 h post-dose. Vital signs were recorded at specified times during each study period and adverse events were reported throughout.
Using this information, a mixed effects regression analysis of the % reduction in saliva versus dose with subject as a random effect was performed for both clonidine and oxybutynin. From this model, an approximate ED30 and an ED50 were calculated.
The key observation in this study is based on the Saxon test. See Kohler & Winter, Arthritis Rheum.

[2] = test system: patients receiving clozapine with excessive drooling; conditions: nasal spray 0.03-0.06% sublingually, 8 patients, after several weeks of use; cited from earlier work
[3] = test system: sialorrhoea induced by clozapine; conditions: in vivo; cited from earlier work
Parkinson's patients = conditions: 0.15 mg per os, 17 Parkinson's patients; cited from earlier work

## C[N+]1(C)CCC(OC(=O)C(O)(c2ccccc2)C2CCCC2)C1 (stereo not shown) [glycopyrrolate]
patients
  patients by whom the drug is not well tolerated: 20-25 % of patients

## CN1[C@@H]2CC[C@H]1C[C@@H](OC(=O)C(CO)c1ccccc1)C2 (stereo partly shown) [atropine]
[1]; 7 patients
  patients who suffered hallucinations: 2 of the 7
[1]; small case study
  saliva production: significant decline in saliva production

## CCN(CC)CC#CCOC(=O)C(O)(c1ccccc1)C1CCCCC1 (stereo not shown) [oxybutynin]
Healthy male volunteers; 10 mg oxybutynin
  AUCT of saliva production compared to placebo: AUCT was reduced
Healthy male volunteers
  saliva production over time: trend towards a reduction in saliva production over time
  effect of dose on saliva production: no significant effects of dose on saliva production

## CC(C)[N+]1(C)[C@@H]2CC[C@H]1C[C@@H](OC(=O)C(CO)c1ccccc1)C2 (stereo partly shown) [ipratropium]
[2]
  non-responder patients: 1 patient
  patients with full response: 2 patients
  patients with partial response (symptoms controlled for 2-8 hours): 5 patients

## Clc1cccc(Cl)c1N=C1NCCN1 [clonidine]
[3]
  reduction of sialorrhoea induced by clozapine: effective in reducing sialorrhoea
Healthy male volunteers; 50 mcg clonidine
  AUCT of saliva production compared to placebo: reduction in AUCTs
Healthy male volunteers; 100 mcg clonidine
  AUCT of saliva production compared to placebo: reduction in AUCTs
Healthy male volunteers
  saliva production over time: trend towards a reduction in saliva production over time
  effect of dose on saliva production: significant with increasing dose levels
Parkinson's patients
  patients who experienced side-effects: Four of the 17
  reduction of sialorrhoea: significantly reduce sialorrhoea
